The record followed here is patent publication US8263605B2, “Modulators of muscarinic receptors” (Vertex Pharmaceutical Incorporated, priority 2006, dated 2012).

SMILES strings stand for the structures. Where only a bound is given, the exact number is not on record here.

One assay concerns the target T1, M1 muscarinic receptor (Homo sapiens, UniProt P11229).
T1 construct: expressed in transfected cells; host or cells: CHO (M1-CHO)
T1 sequence (P11229 1-460): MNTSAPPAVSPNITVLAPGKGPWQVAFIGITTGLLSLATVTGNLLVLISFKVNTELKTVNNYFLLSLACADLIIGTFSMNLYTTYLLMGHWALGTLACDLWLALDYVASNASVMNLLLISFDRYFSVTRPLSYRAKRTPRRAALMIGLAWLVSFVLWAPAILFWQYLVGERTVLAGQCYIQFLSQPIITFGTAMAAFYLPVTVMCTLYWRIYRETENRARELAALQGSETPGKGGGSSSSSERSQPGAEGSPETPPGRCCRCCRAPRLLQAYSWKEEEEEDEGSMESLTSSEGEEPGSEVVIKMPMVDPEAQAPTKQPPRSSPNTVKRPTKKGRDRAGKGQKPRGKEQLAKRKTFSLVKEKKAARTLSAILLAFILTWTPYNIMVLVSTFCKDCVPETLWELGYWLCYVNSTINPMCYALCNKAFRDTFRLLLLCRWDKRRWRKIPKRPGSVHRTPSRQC
The experiment in a line: Functional mobilization of intracellular calcium (FLIPR), M1-CHO cells. The assay is classed as cell-based. As to conditions: for Emax: 100% efficacy is the maximum response obtained with the Carbachol control; for M1 Activity: CHO cells expressing M1, calcium mobilization. The method in brief:
(§1)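 Recombinant CHO cells loaded with Fluo-3 AM or Calcium 3 dye; fluorescence recorded 60 s on FLIPR in pH 7.4 buffer with 1 mM probenecid, 0.5% DMSO. Agonist mode: compound alone; antagonist mode: 15 min preincubation (or co-application) then carbachol at EC80. Efficacy relative to maximal carbachol response.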

In another assay the target is T2, M4 muscarinic receptor (Homo sapiens, UniProt P08173).
T2 construct: expressed in transfected cells; host or cells: CHO (M4-CHO)
T2 sequence (P08173 1-479): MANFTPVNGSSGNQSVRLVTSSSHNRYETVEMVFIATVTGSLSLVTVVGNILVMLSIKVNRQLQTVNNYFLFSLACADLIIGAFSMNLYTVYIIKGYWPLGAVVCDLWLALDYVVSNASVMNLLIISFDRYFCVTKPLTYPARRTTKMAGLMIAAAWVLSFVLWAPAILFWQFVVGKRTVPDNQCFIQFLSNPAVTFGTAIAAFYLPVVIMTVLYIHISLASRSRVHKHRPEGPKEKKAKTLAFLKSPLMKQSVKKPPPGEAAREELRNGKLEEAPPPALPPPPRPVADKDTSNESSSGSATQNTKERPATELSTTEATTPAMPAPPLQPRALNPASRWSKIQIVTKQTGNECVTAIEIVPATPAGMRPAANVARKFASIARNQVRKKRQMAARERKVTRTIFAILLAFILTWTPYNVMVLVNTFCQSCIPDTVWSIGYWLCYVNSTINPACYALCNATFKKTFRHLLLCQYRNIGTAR
The experiment in a line: Functional mobilization of intracellular calcium (FLIPR), M4-CHO cells. The assay is classed as cell-based. As to conditions: for Emax: 100% efficacy is the maximum response obtained with the Carbachol control; for M4 Activity: CHO cells expressing M4, calcium mobilization. The method in brief:
as §1
A general note: A change in cytosolic calcium serves as a functional read-out for many receptors and channels.

The Emax is the size of the effect at its maximum, as opposed to the concentration needed. Regarding `CCOC(=O)N1CCCC(N2CCC3(CC2)CN(C(=O)N(C)C)c2ccccc23)CC1` (stereo not drawn) [compound 68], on M1 muscarinic receptor, the maximal response (Emax) is 25 to 100% and the “M1 Activity” value is on record as “+++ (activity was measured to be less than 2.0 μM)”. Also, on M4 muscarinic receptor, the maximal response (Emax) is above 100% and the “M4 Activity” value is on record as “+++ (activity was measured to be less than 2.0 μM)”.
On to `CCCOC(=O)N1CCCC(N2CCC3(CC2)CN(C(=O)N(C)C)c2ccccc23)CC1` (stereo not drawn) [compound 69], for which, at M1 muscarinic receptor, the maximum response (Emax) lay in the range of 25 to 100% and the “M1 Activity” value is on record as “+++ (activity was measured to be less than 2.0 μM)”. For the same compound, at M4 muscarinic receptor, the Emax is 25 to 100% and the “M4 Activity” value is “+++ (activity was measured to be less than 2.0 μM)”.
Regarding `CC(C)OC(=O)N1CCCC(N2CCC3(CC2)CN(C(=O)N(C)C)c2ccccc23)CC1` (stereo not drawn) [compound 70], on M1 muscarinic receptor, the Emax was in the range of 25 to 100% and the “M1 Activity” value is on record as “++ (activity was measured to be from 2.0 μM to 10.0 μM)”. At M4 muscarinic receptor, the Emax is 25 to 100% and the “M4 Activity” value is “+++ (activity was measured to be less than 2.0 μM)”.
With `CN(C)C(=O)N1CC2(CCN(C3CCCN(C(=O)OCC(F)F)CC3)CC2)c2ccccc21` (stereo not drawn) [compound 71], on M1 muscarinic receptor, the Emax fell in the range of 25 to 100% and the “M1 Activity” value is recorded as “+++ (activity was measured to be less than 2.0 μM)”. Further, at M4 muscarinic receptor, the maximum response (Emax) fell in the range of 25 to 100% and the “M4 Activity” value is listed as “+++ (activity was measured to be less than 2.0 μM)”.
As for `COCCOC(=O)N1CCCC(N2CCC3(CC2)CN(C(=O)N(C)C)c2ccccc23)CC1` (stereo not drawn) [compound 72], on M1 muscarinic receptor, the Emax was in the range of 25 to 100% and the “M1 Activity” value is given as “+++ (activity was measured to be less than 2.0 μM)”. In addition, at M4 muscarinic receptor, the Emax lay within 25 to 100% and the “M4 Activity” value is “+++ (activity was measured to be less than 2.0 μM)”.
Consider `CN(C)C(=O)N1CC2(CCN(C3CCCN(C(=O)O[C@@H]4CCOC4)CC3)CC2)c2ccccc21` (stereo partly drawn) [compound 73], for which, at M1 muscarinic receptor, the Emax is below 25% and the “M1 Activity” value is “++ (activity was measured to be from 2.0 μM to 10.0 μM)”. Also, at M4 muscarinic receptor, the maximal effect (Emax) was in the range of 25 to 100% and the “M4 Activity” value is “+++ (activity was measured to be less than 2.0 μM)”.
Turning to `Cc1nsc(C2CCC(N3CCC4(CC3)CN(C(=O)N(C)C)c3ccccc34)CC2)n1` (stereo not drawn) [compound 74], at M1 muscarinic receptor, the maximal response (Emax) lay in the range of 25 to 100% and the “M1 Activity” value is recorded as “+++ (activity was measured to be less than 2.0 μM)”. At M4 muscarinic receptor, the Emax lay in the range of 25 to 100% and the “M4 Activity” value is given as “+++ (activity was measured to be less than 2.0 μM)”.
For the compound `CN(C)C(=O)N1CC2(CCN(C3CCN(c4ncns4)CC3)CC2)c2ccccc21` [compound 75], on M1 muscarinic receptor, the maximum response (Emax) fell in the range of 25 to 100% and the “M1 Activity” value is listed as “++ (activity was measured to be from 2.0 μM to 10.0 μM)”. At M4 muscarinic receptor, the maximal effect (Emax) was 25 to 100% and the “M4 Activity” value was “+++ (activity was measured to be less than 2.0 μM)”.
For the compound `CCc1nsc(N2CCC(N3CCC4(CC3)CN(C(=O)N(C)C)c3ccccc34)CC2)n1` [compound 76], on M1 muscarinic receptor, the Emax was above 100% and the “M1 Activity” value is recorded as “+++ (activity was measured to be less than 2.0 μM)”. Moreover, on M4 muscarinic receptor, the maximal effect (Emax) was above 100% and the “M4 Activity” value is on record as “+++ (activity was measured to be less than 2.0 μM)”.
As to `CN(C)C(=O)N1CC2(CCN(C3CCN(c4cncc(Cl)n4)CC3)CC2)c2ccccc21` [compound 77], on M1 muscarinic receptor, the maximal response (Emax) is 25 to 100% and the “M1 Activity” value is “+++ (activity was measured to be less than 2.0 μM)”. For the same compound, at M4 muscarinic receptor, the Emax is 25 to 100% and the “M4 Activity” value was “+++ (activity was measured to be less than 2.0 μM)”.
Consider `CN(C)C(=O)N1CC2(CCN(C3CCN(c4cnc5ccccc5n4)CC3)CC2)c2ccccc21` [compound 78], for which, at M1 muscarinic receptor, the Emax fell in the range of 25 to 100% and the “M1 Activity” value is “+++ (activity was measured to be less than 2.0 μM)”. Further, on M4 muscarinic receptor, the Emax was 25 to 100% and the “M4 Activity” value is recorded as “+++ (activity was measured to be less than 2.0 μM)”.
For `Cc1cncc(N2CCC(N3CCC4(CC3)CN(C(=O)N(C)C)c3ccccc34)CC2)n1` [compound 79], at M1 muscarinic receptor, the maximal effect (Emax) lay within 25 to 100% and the “M1 Activity” value is on record as “+++ (activity was measured to be less than 2.0 μM)”. Also, at M4 muscarinic receptor, the Emax was 25 to 100% and the “M4 Activity” value is listed as “+++ (activity was measured to be less than 2.0 μM)”.
As for `COC(=O)N1CCCC(N2CCC3(CC2)CN(C(=O)N(C)C)c2ccccc23)CCC1` [compound 80], on M1 muscarinic receptor, the Emax is 25 to 100% and the “M1 Activity” value is reported as “+++ (activity was measured to be less than 2.0 μM)”. In addition, on M4 muscarinic receptor, the Emax was above 100% and the “M4 Activity” value was “+++ (activity was measured to be less than 2.0 μM)”.
As to `CCOC(=O)N1CCC(C)(N2CCC3(CC2)CN(C(=O)N(C)C)c2ccccc23)CC1` [compound 81], at M1 muscarinic receptor, the Emax is 25 to 100% and the “M1 Activity” value was “+++ (activity was measured to be less than 2.0 μM)”. At M4 muscarinic receptor, the Emax lay in the range of 25 to 100% and the “M4 Activity” value is “+++ (activity was measured to be less than 2.0 μM)”.
`CN(C)C(=O)N1CC2(CCN(C3(C)CCN(c4cnccn4)CC3)CC2)c2ccccc21` [compound 82]: at M1 muscarinic receptor, the maximum response (Emax) fell in the range of 25 to 100% and the “M1 Activity” value was “++ (activity was measured to be from 2.0 μM to 10.0 μM)”. Besides, at M4 muscarinic receptor, the Emax is 25 to 100% and the “M4 Activity” value is “+++ (activity was measured to be less than 2.0 μM)”.
With `Cc1nsc(N2CC[C@H](CN3CCC4(CC3)CN(C(=O)N(C)C)c3ccccc34)C2)n1` [compound 83], on M1 muscarinic receptor, the Emax was 25 to 100% and the “M1 Activity” value is reported as “++ (activity was measured to be from 2.0 μM to 10.0 μM)”. At M4 muscarinic receptor, the Emax fell in the range of 25 to 100% and the “M4 Activity” value is reported as “+++ (activity was measured to be less than 2.0 μM)”.
Take `CCc1nsc(N2CC[C@H](CN3CCC4(CC3)CN(C(=O)N(C)C)c3ccccc34)C2)n1` [compound 84]: at M1 muscarinic receptor, the Emax lay in the range of 25 to 100% and the “M1 Activity” value is on record as “+++ (activity was measured to be less than 2.0 μM)”. At M4 muscarinic receptor, the maximum response (Emax) is 25 to 100% and the “M4 Activity” value is listed as “+++ (activity was measured to be less than 2.0 μM)”.
Regarding `Cc1nsc(N2CC[C@@H](CN3CCC4(CC3)CN(C(=O)N(C)C)c3ccccc34)C2)n1` [compound 85], at M1 muscarinic receptor, the Emax was 25 to 100% and the “M1 Activity” value is “+++ (activity was measured to be less than 2.0 μM)”. Further, on M4 muscarinic receptor, the Emax was above 100% and the “M4 Activity” value is reported as “+++ (activity was measured to be less than 2.0 μM)”.
On to `CCc1nsc(N2CC[C@@H](CN3CCC4(CC3)CN(C(=O)N(C)C)c3ccccc34)C2)n1` [compound 86], for which, on M1 muscarinic receptor, the maximal response (Emax) lay in the range of 25 to 100% and the “M1 Activity” value is “+++ (activity was measured to be less than 2.0 μM)”. Besides, on M4 muscarinic receptor, the maximal effect (Emax) fell in the range of 25 to 100% and the “M4 Activity” value is “+++ (activity was measured to be less than 2.0 μM)”.
With `Cc1ncc(N2CC[C@H](CN3CCC4(CC3)CN(C(=O)N(C)C)c3ccccc34)C2)nc1C` [compound 87], at M1 muscarinic receptor, the Emax is below 25% and the “M1 Activity” value is on record as “+ (activity was measured to be greater than 10.0 μM)”. In addition, on M4 muscarinic receptor, the maximal response (Emax) was in the range of 25 to 100% and the “M4 Activity” value was “+++ (activity was measured to be less than 2.0 μM)”.
For `Cc1ncc(N2CCC(N3CCC4(CC3)CN(C(=O)N(C)C)c3ccccc34)CC2)nc1C` [compound 88] the same measures were 25 to 100%, “++ (activity was measured to be from 2.0 μM to 10.0 μM)”, 25 to 100% and “+++ (activity was measured to be less than 2.0 μM)”.
Turning to `CN(C)C(=O)N1CC2(CCN(C3CCN(c4nncs4)CC3)CC2)c2ccccc21` [compound 89], at M1 muscarinic receptor, the Emax is below 25% and the “M1 Activity” value is “++ (activity was measured to be from 2.0 μM to 10.0 μM)”. Also, on M4 muscarinic receptor, the maximal effect (Emax) lay within 25 to 100% and the “M4 Activity” value is “++ (activity was measured to be from 2.0 μM to 10.0 μM)”.
For the compound `CN(C)C(=O)N1CC2(CCN(C3CCN(c4nccs4)CC3)CC2)c2ccccc21` [compound 90], at M1 muscarinic receptor, the maximal response (Emax) was 25 to 100% and the “M1 Activity” value is given as “++ (activity was measured to be from 2.0 μM to 10.0 μM)”. For the same compound, on M4 muscarinic receptor, the Emax was in the range of 25 to 100% and the “M4 Activity” value is reported as “++ (activity was measured to be from 2.0 μM to 10.0 μM)”.
For `Cc1csc(N2CCC(N3CCC4(CC3)CN(C(=O)N(C)C)c3ccccc34)CC2)n1` [compound 91], on M1 muscarinic receptor, the Emax is 25 to 100% and the “M1 Activity” value is “++ (activity was measured to be from 2.0 μM to 10.0 μM)”. On M4 muscarinic receptor, the Emax was 25 to 100% and the “M4 Activity” value is recorded as “+++ (activity was measured to be less than 2.0 μM)”.
